For data set [1], the system named is Streptococcus pneumoniae. The experiment in a line: Antibacterial activity against Streptococcus pneumoniae 7 expressing constitutive ermB methylase after 20 hrs by agar dilution method. The format is functional. The settings on record: Streptococcus pneumoniae, 7, 20 h.
Data set [2] can be described thus: Metabolic stability at human liver S9 fraction assessed as compound remaining after 1 hr. The settings on record: read-out: Stability. In kind it is ADME, subcellular.
The test system of data set [3] is Streptococcus pneumoniae. The experiment in a line: Antibacterial activity against Streptococcus pneumoniae 9 expressing inducible ermB methylase after 20 hrs by agar dilution method. In kind it is functional. Particulars: Streptococcus pneumoniae, 9, 20 h.
Data set [4] concerns Haemophilus influenzae. The experiment in a line: Antibacterial activity against Haemophilus influenzae 1 after 20 hrs by agar dilution method. Particulars: Haemophilus influenzae, 1, 20 h. The format is functional. For orientation: Agar dilution tests growth on a series of plates holding different concentrations.
Data set [5] has as its system Streptococcus pneumoniae. Put plainly: Antibacterial activity against Streptococcus pneumoniae DP1 type 1 after 20 hrs by agar dilution method. In kind it is functional. Particulars: DP1 type1, 20 h.
Data set [6] deals with Streptococcus pneumoniae. Put plainly: Antibacterial activity against Streptococcus pneumoniae 10 expressing mefA efflux pump after 20 hrs by agar dilution method. The format is functional. The settings on record: Streptococcus pneumoniae, 10, 20 h.
In data set [7] the test system is Streptococcus pyogenes. The experiment in a line: Antibacterial activity against Streptococcus pyogenes Cook after 20 hrs by agar dilution method. In kind it is functional.
Data set [8] deals with Streptococcus pyogenes. Put plainly: Antibacterial activity against Streptococcus pyogenes 2 expressing constitutive ermB methylase after 20 hrs by agar dilution method. Particulars: Streptococcus pyogenes, 2, 20 h. In kind it is functional.
Data set [9] relates to Haemophilus influenzae. Put plainly: Antibacterial activity against Haemophilus influenzae 2 after 20 hrs by agar dilution method. In kind it is functional. The settings on record: Haemophilus influenzae, 2, 20 h.
Data set [10] concerns Streptococcus pyogenes. The experiment in a line: Antibacterial activity against Streptococcus pyogenes 3 expressing mefA efflux pump after 20 hrs by agar dilution method. Particulars: Streptococcus pyogenes, 3, 20 h. In kind it is functional.
Another data set relates to Staphylococcus aureus. The experiment in a line: Antibacterial activity against Staphylococcus aureus 209P JC1 after 20 hrs by agar dilution method. Particulars: 209P JC1, 20 h. In kind it is functional.
The test system of data set [11] is Streptococcus pneumoniae. Put plainly: Antibacterial activity against Streptococcus pneumoniae 6 expressing constitutive ermB methylase and mefA after 20 hrs by agar dilution method. In kind it is functional. Particulars: Streptococcus pneumoniae, 6, 20 h.
Data set [12] has as its system Streptococcus pneumoniae. The experiment in a line: Antibacterial activity against Streptococcus pneumoniae 8 expressing inducible ermB methylase after 20 hrs by agar dilution method. The settings on record: Streptococcus pneumoniae, 8, 20 h. In kind it is functional.
Data set [13] concerns Streptococcus pneumoniae. The experiment in a line: Antibacterial activity against Streptococcus pneumoniae 11 expressing mefA efflux pump after 20 hrs by agar dilution method. Particulars: Streptococcus pneumoniae, 11, 20 h. In kind it is functional.
Data set [14] has as its system Streptococcus pneumoniae. Put plainly: Antibacterial activity against Streptococcus pneumoniae 5 expressing constitutive ermB methylase after 20 hrs by agar dilution method. The format is functional. The settings on record: Streptococcus pneumoniae, 5, 20 h.
The test system of data set [15] is Haemophilus influenzae. The experiment in a line: Antibacterial activity against Haemophilus influenzae 3 after 20 hrs by agar dilution method. The format is functional. Particulars: Haemophilus influenzae, 3, 20 h.

Values after ≈ are worked out from the molar mass of the structure shown. A value given as a limit tells only on which side of the number the result lay.

Consider `CCC(=O)O[C@@H]1CC(=O)O[C@@H](C/C=C/c2cnc3ccccc3c2)CCCN(C)C[C@H](O)[C@H](C)C[C@H](CC=O)[C@H](O[C@@H]2O[C@H](C)[C@@H](O[C@H]3C[C@@](C)(OC(=O)CC)[C@@H](OC(=O)NC)[C@H](C)O3)[C@H](N(C)C)[C@H]2O)[C@H]1OC`, for which the MIC is 32 µg/mL (≈ 30.7 µM) in the data set on Streptococcus pneumoniae [1]; 0.5 µg/mL (≈ 0.479 µM) in the data set with Streptococcus pneumoniae [3]; 4 µg/mL (≈ 3.83 µM) with Haemophilus influenzae [4]; less than 0.008 µg/mL in the data set on Streptococcus pneumoniae [5]; 0.015 µg/mL (≈ 0.0144 µM) with Streptococcus pneumoniae [6]; 0.06 µg/mL (≈ 0.0575 µM) against Streptococcus pyogenes [7]. The MIC with Streptococcus pyogenes [8] is greater than 32 µg/mL; with Haemophilus influenzae [9], 8 µg/mL (≈ 7.67 µM); against Streptococcus pyogenes [10], 0.06 µg/mL (≈ 0.0575 µM); against Staphylococcus aureus it was 0.25 µg/mL (≈ 0.24 µM); with Streptococcus pneumoniae [11], 32 µg/mL (≈ 30.7 µM); in the data set on Streptococcus pneumoniae [12] it was 0.25 µg/mL (≈ 0.24 µM). Besides, the MIC in the data set with Streptococcus pneumoniae [13] turned out to be 0.03 µg/mL (≈ 0.0288 µM); against Streptococcus pneumoniae [14] it was 32 µg/mL (≈ 30.7 µM); in the data set on Haemophilus influenzae [15] it was 8 µg/mL (≈ 7.67 µM). In data set [2], the remaining at 1 h was 78%.
With `CCC(=O)O[C@@H]1CC(=O)O[C@@H](C/C=C/c2cnc3ccccc3c2)CCCN(C)C[C@H](O)[C@H](C)C[C@H](CC=O)[C@H](O[C@@H]2O[C@H](C)[C@@H](O[C@H]3C[C@@](C)(O)[C@@H](OC(=O)CC)[C@H](C)O3)[C@H](N(C)C)[C@H]2O)[C@H]1OC`, the MIC with Streptococcus pneumoniae [1] stood at 128 µg/mL (≈ 130 µM); against Streptococcus pneumoniae [3], 8 µg/mL (≈ 8.11 µM); in the data set with Haemophilus influenzae [4], 2 µg/mL (≈ 2.03 µM); in the data set on Streptococcus pneumoniae [5], 0.015 µg/mL (≈ 0.0152 µM); with Streptococcus pneumoniae [6], 0.06 µg/mL (≈ 0.0608 µM); in the data set on Streptococcus pyogenes [7], 0.06 µg/mL (≈ 0.0608 µM). Besides, the MIC in the data set on Streptococcus pyogenes [8] was greater than 128 µg/mL; against Haemophilus influenzae [9] it was 8 µg/mL (≈ 8.11 µM); against Streptococcus pyogenes [10], 0.5 µg/mL (≈ 0.507 µM); in the data set with Staphylococcus aureus, 0.5 µg/mL (≈ 0.507 µM); against Streptococcus pneumoniae [11], 128 µg/mL (≈ 130 µM); in the data set with Streptococcus pneumoniae [12], 8 µg/mL (≈ 8.11 µM). Moreover, the MIC in the data set with Streptococcus pneumoniae [13] is 0.03 µg/mL (≈ 0.0304 µM); with Streptococcus pneumoniae [14], 128 µg/mL (≈ 130 µM); in the data set with Haemophilus influenzae [15], 8 µg/mL (≈ 8.11 µM). Moreover, the remaining at 1 h in data set [2] came to 28%.
For the compound `CCNC(=O)O[C@H]1[C@H](C)O[C@@H](O[C@H]2[C@H](N(C)C)[C@@H](O)[C@H](O[C@H]3[C@@H](CC=O)C[C@@H](C)[C@@H](O)CN(C)CCC[C@H](C/C=C/c4ccc5ccccc5c4)OC(=O)C[C@@H](OC(=O)CC)[C@@H]3OC)O[C@@H]2C)C[C@@]1(C)OC(=O)CC`, the MIC in the data set with Streptococcus pneumoniae [1] was 32 µg/mL (≈ 30.3 µM); with Streptococcus pneumoniae [3], 0.5 µg/mL (≈ 0.473 µM); in the data set with Haemophilus influenzae [4], 16 µg/mL (≈ 15.1 µM); against Streptococcus pneumoniae [5] it was 0.06 µg/mL (≈ 0.0568 µM); in the data set with Streptococcus pneumoniae [6], 0.13 µg/mL (≈ 0.123 µM); with Streptococcus pyogenes [7] it was 0.25 µg/mL (≈ 0.237 µM). Besides, the MIC amounted to 16 µg/mL (≈ 15.1 µM) against Streptococcus pyogenes [8]; 16 µg/mL (≈ 15.1 µM) with Haemophilus influenzae [9]; 0.5 µg/mL (≈ 0.473 µM) with Streptococcus pyogenes [10]; 2 µg/mL (≈ 1.89 µM) in the data set on Staphylococcus aureus; 32 µg/mL (≈ 30.3 µM) in the data set on Streptococcus pneumoniae [11]; 0.5 µg/mL (≈ 0.473 µM) in the data set with Streptococcus pneumoniae [12]. Further, the MIC was 0.13 µg/mL (≈ 0.123 µM) against Streptococcus pneumoniae [13], 16 µg/mL (≈ 15.1 µM) with Streptococcus pneumoniae [14] and 32 µg/mL (≈ 30.3 µM) in the data set with Haemophilus influenzae [15]. Also, the remaining at 1 h in [2] stood at 82%.
`CCC(=O)O[C@@H]1CC(=O)O[C@H](C)C/C=C/C=C/[C@H](OC(C)=O)[C@H](C)C[C@H](CC=O)[C@H](O[C@@H]2O[C@H](C)[C@@H](O[C@H]3C[C@@](C)(OC(C)=O)[C@@H](OC(=O)CC)[C@H](C)O3)[C@H](N(C)C)[C@H]2O)[C@H]1OC` [MIOCAMYCIN]: the MIC in the data set with Streptococcus pneumoniae [1] was greater than 128 µg/mL; with Streptococcus pneumoniae [3], 8 µg/mL (≈ 8.91 µM); in the data set with Haemophilus influenzae [4], 4 µg/mL (≈ 4.45 µM); with Streptococcus pneumoniae [5], 0.13 µg/mL (≈ 0.145 µM); with Streptococcus pneumoniae [6], 0.25 µg/mL (≈ 0.278 µM); against Streptococcus pyogenes [7] it was 0.13 µg/mL (≈ 0.145 µM). Moreover, the MIC was greater than 128 µg/mL in the data set with Streptococcus pyogenes [8]; 16 µg/mL (≈ 17.8 µM) in the data set with Haemophilus influenzae [9]; 0.5 µg/mL (≈ 0.557 µM) against Streptococcus pyogenes [10]; 0.5 µg/mL (≈ 0.557 µM) in the data set on Staphylococcus aureus; greater than 128 µg/mL in the data set on Streptococcus pneumoniae [11]; 4 µg/mL (≈ 4.45 µM) in the data set with Streptococcus pneumoniae [12]. In addition, the MIC is 0.25 µg/mL (≈ 0.278 µM) against Streptococcus pneumoniae [13], greater than 128 µg/mL in the data set on Streptococcus pneumoniae [14] and 16 µg/mL (≈ 17.8 µM) against Haemophilus influenzae [15]. The remaining at 1 h in data set [2] came to 5.1%.
With `CC[C@H]1OC(=O)[C@H](C)C(=O)[C@H](C)[C@@H](O[C@@H]2O[C@H](C)C[C@H](N(C)C)[C@H]2O)[C@](C)(OC)C[C@@H](C)C(=O)[C@H](C)[C@H]2N(CCCCn3cnc(-c4cccnc4)c3)C(=O)O[C@]12C` [TELITHROMYCIN], the MIC with Streptococcus pneumoniae [1] was 1 µg/mL (≈ 1.23 µM); against Streptococcus pneumoniae [3], 0.06 µg/mL (≈ 0.0739 µM); in the data set with Haemophilus influenzae [4] it was 0.5 µg/mL (≈ 0.616 µM); with Streptococcus pneumoniae [5], less than 0.008 µg/mL; in the data set with Streptococcus pneumoniae [6] it was 0.06 µg/mL (≈ 0.0739 µM); against Streptococcus pyogenes [7] it was less than 0.008 µg/mL. Also, the MIC with Streptococcus pyogenes [8] came out at 16 µg/mL (≈ 19.7 µM); with Haemophilus influenzae [9], 2 µg/mL (≈ 2.46 µM); in the data set with Streptococcus pyogenes [10], 0.5 µg/mL (≈ 0.616 µM); with Staphylococcus aureus, 0.03 µg/mL (≈ 0.0369 µM); against Streptococcus pneumoniae [11], 1 µg/mL (≈ 1.23 µM); against Streptococcus pneumoniae [12], 0.06 µg/mL (≈ 0.0739 µM). For the same compound, the MIC turned out to be 0.06 µg/mL (≈ 0.0739 µM) in the data set with Streptococcus pneumoniae [13], 0.5 µg/mL (≈ 0.616 µM) in the data set with Streptococcus pneumoniae [14] and 1 µg/mL (≈ 1.23 µM) with Haemophilus influenzae [15]. In addition, in [2], the remaining at 1 h came out at 84%.

These data come from ChEMBL document CHEMBL1156987, “Novel azalides derived from 16-membered macrolides. III. Azalides modified at the C-15 and 4'' positions: Improved antibacterial activities” (Bioorg Med Chem, 2010).
